Results as given in ChEMBL document CHEMBL5257060, “Trust Your Gut: Strategies and Tactics for Intestinally Restricted Drugs” (ACS Med Chem Lett, 2023).
pEC50, pIC50: −log10 of the molar value. Values belong to the compound of their own block, whether it stands above or below them.

Columns and labels:
[1] = Apparent permeability across apical to basolateral side in human Caco-2 cells; type: ADME, cell-based
[2] = Cmax in rat at 30 mg/kg, po; type: ADME, organism-based; set-up: dose 30 mg/kg, route po; conditions: in vivo
[3] = target: T1, Sodium/hydrogen exchanger 3 (Homo sapiens, UniProt P48764); assay: Inhibition of human NHE3
T1 sequence (P48764 whole entry): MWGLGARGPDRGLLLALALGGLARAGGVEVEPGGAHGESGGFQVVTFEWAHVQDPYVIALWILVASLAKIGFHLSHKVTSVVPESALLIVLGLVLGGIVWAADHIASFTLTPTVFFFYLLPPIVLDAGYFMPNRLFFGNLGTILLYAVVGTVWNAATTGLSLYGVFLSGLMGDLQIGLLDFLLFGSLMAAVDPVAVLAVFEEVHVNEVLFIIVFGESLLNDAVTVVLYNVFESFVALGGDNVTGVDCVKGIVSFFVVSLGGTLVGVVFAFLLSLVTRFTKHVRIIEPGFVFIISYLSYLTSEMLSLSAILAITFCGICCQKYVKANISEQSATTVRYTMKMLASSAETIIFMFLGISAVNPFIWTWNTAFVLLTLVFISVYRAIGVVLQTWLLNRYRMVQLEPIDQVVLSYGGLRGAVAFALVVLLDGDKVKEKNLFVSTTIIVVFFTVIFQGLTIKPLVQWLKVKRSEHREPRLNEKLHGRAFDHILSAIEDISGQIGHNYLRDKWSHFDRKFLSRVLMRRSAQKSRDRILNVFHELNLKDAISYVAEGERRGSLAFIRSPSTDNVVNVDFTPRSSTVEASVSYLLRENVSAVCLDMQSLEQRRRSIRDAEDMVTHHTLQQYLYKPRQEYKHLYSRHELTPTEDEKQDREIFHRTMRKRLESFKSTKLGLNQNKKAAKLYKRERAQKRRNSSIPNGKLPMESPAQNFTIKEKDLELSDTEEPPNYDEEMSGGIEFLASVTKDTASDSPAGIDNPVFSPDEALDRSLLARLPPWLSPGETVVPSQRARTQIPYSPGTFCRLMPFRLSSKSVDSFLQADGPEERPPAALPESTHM

[4] = Drug recovery in feces of rats at 30 mg/kg, po; type: ADME, organism-based; conditions: rat, faeces, read-out: Drug recovery
[5] = Drug concentration in mouse intestine at 30 mg/kg, po measured for 2 hr; type: ADME, organism-based; conditions: read-out: Ct
[6] = Drug concentration in mouse plasma at 30 mg/kg, po measured for 2 hr; type: ADME, organism-based
[7] = Drug recovery in feces of rats at 20 mg, po; type: ADME; conditions: rat, faeces, read-out: Drug recovery
Dipeptidyl peptidase 4 = Dipeptidyl peptidase 4 (Mus musculus, UniProt P28843); assay: Inhibition of mouse DPP4
Chain of Dipeptidyl peptidase 4 (P28843 whole entry): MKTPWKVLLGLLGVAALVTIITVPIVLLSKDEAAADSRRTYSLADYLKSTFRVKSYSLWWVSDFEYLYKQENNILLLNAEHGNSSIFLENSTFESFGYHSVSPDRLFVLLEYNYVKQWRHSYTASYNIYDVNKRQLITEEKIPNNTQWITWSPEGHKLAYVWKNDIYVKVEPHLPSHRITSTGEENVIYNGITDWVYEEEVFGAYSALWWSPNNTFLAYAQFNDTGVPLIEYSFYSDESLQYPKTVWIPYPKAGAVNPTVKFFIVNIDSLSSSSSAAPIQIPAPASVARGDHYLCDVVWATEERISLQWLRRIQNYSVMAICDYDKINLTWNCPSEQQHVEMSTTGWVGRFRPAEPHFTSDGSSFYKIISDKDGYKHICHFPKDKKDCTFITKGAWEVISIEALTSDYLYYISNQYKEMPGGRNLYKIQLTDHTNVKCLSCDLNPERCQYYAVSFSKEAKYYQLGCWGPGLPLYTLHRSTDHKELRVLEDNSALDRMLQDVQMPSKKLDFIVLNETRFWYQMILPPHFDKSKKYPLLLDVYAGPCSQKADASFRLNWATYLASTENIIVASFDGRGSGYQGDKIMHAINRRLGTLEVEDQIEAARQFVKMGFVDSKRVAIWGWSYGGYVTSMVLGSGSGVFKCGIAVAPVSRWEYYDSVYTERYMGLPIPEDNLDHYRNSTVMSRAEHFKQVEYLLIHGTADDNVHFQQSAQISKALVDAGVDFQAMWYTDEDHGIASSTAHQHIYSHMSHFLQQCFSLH

[8] = Cmax in ICR mouse plasma at 150 mg/kg, po measured at 1 hr post dose; type: ADME, organism-based; set-up: time 1 hrs, dose 150 mg/kg, route po
[9] = Apparent permeability across apical to basolateral side in human Caco-2 cells by PAMPA assay; type: ADME, cell-based
[10] = target: T2, G-protein coupled bile acid receptor 1 (Mus musculus, UniProt Q80SS6); assay: Inhibition of mouse TGR5
T2 sequence (Q80SS6 whole entry): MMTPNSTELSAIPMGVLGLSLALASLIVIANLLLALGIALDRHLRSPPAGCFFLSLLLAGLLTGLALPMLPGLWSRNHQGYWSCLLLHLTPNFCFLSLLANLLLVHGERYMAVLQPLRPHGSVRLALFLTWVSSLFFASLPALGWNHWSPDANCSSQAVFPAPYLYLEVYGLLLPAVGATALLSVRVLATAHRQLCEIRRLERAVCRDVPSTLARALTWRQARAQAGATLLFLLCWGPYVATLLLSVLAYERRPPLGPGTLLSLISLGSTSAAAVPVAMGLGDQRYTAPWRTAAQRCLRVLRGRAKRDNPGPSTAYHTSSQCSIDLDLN

[11] = Cmax in mouse colon at 10 mg/kg, po; type: ADME, organism-based; set-up: dose 10 mg/kg, route po
[12] = Cmax in mouse colon content at 10 mg/kg, po; type: ADME, organism-based; set-up: dose 10 mg/kg, route po
[13] = Cmax in rat plasma at 10 mg/kg, po; type: ADME, organism-based; set-up: dose 10 mg/kg, route po
[14] = Cmax in mouse plasma at 10 mg/kg, po; type: ADME, organism-based; set-up: dose 10 mg/kg, route po
[15] = Efflux ratio of apparent permeability in human Caco-2 cells; type: ADME, cell-based
[16] = Apparent permeability in human Caco-2 cells; type: ADME, cell-based
[17] = AUC in mouse at 5 mg/kg, po; type: ADME, organism-based; set-up: dose 5 mg/kg, route po; conditions: in vivo
[18] = Drug recovery in feces of mouse at 5 mg/kg, po; type: ADME, organism-based; conditions: faeces, read-out: Drug recovery

Cmax [2]: < 0.0005 µg/mL
pIC50 [3]: 9.30
dose excreted [4]: 92%
SMILES: CN1Cc2c(Cl)cc(Cl)cc2[C@@H](c2cccc(S(=O)(=O)NCCOCCOCCNC(=O)NCCCCNC(=O)NCCOCCOCCNS(=O)(=O)c3cccc([C@@H]4CN(C)Cc5c(Cl)cc(Cl)cc54)c3)c2)C1

concentration at 2 h [5]: 30 µM
concentration at 2 h [6]: 0.006 µM
SMILES: Cc1cc(C)c(S(=O)(=O)N(CCc2cccc(Br)c2)Cc2ccc(-c3cccc(S(C)(=O)=O)c3)cc2)c(C)c1

pIC50 (Dipeptidyl peptidase 4): 4.15
Cmax [8]: 0.101 µg/mL
Papp A→B [9]: 0.3 nm/s
pEC50 [10]: 7.77
SMILES: CC#CCn1c(N2CCC[C@H](NC(=O)CCOCCOCCOCCOCCOCCOCCN(C)C(=O)CCc3cc(Cl)c(Oc4ccncc4C(=O)N4CCN(C5CC5)c5ccccc54)cc3Cl)C2)nc2c1c(=O)n(Cc1nc(C)c3ccccc3n1)c(=O)n2C

Second part, the compound before the results:

SMILES: CN(CC[N+](C)(C)C)C(=O)CCc1cc(Cl)c(Oc2ccsc2C(=O)N2CCN(C3CC3)c3ccccc32)cc1Cl.O=C([O-])C(F)(F)F
Papp A→B [1]: 0.6 nm/s

SMILES: CCCCC1(CCCC)CS(=O)(=O)c2ccc(N(C)C)cc2[C@@H](c2ccc(OCc3ccc(C[N+]45CCN(CC4)CC5)cc3)cc2)[C@H]1O [MARALIXIBAT]
dose excreted [7]: 94%

SMILES: Cc1cccc(Oc2cc(Oc3cccc(C)n3)cc(Oc3cccc(C)n3)c2)n1 [AMELENODOR]
Cmax [11]: 150000 ng/g
Cmax [12]: 1e+07 ng/g
Cmax [13]: 0.057 µg/mL

SMILES: Cc1cc(Nc2cc3ncccc3c(NC3C[C@H]4CC[C@@H](C3)N4CCC#N)n2)n[nH]1 (some centres not stated)
Cmax [14]: 0.003 µM
efflux ratio [15]: 32.5
Cmax [11]: 9.17 µM
Papp [16]: 11.7 nm/s

SMILES: CO[C@@H]1C[C@@H]2C[C@H](O)CC[C@]2(C)[C@H]2CC[C@]3(C)[C@@H]([C@H](C)CCC(=O)N(C)C[C@H](O)[C@@H](O)[C@H](O)[C@H](O)CO)CC[C@H]3[C@H]12
pEC50 [10]: 7.21

SMILES: CO[C@@H]1CC[C@@]2(C)[C@H](CC(OS(=O)(=O)[O-])[C@@H]3[C@@H]2CC[C@]2(C)[C@@H]([C@H](C)CCc4nnn[nH]4)CC[C@@H]32)C1.[Na+] (some centres not stated)
AUC [17]: 4.84 µg·h/mL
Papp A→B [1]: 4 nm/s
dose excreted [18]: 89%
